Starred links: 1 amine or outer side, 2 acyl side, 3 side chain; linkers in the order of their positions; H or OH if unused. Residues, ends and D or L forms follow the SMILES beside them. *: point of attachment. X1 = CC[C@@]1(O)C(=O)OCc2c1cc1n(c2=O)Cc2c-1nc1cc(F)c(C)c3c1c2[C@@H](NC(=O)CNC(=O)[C@H](Cc1ccccc1)NC(=O)CNC(=O)CNC(=O)CCCCC(=O)*)CC3; Pteroyl = Nc1nc2ncc(CNc3ccc(C(=O)*)cc3)nc2c(=O)[nH]1; γGlu = O=C(O)[C@H](CCC(=O)[*:2])N[*:1]
Legend:
[1] = Safety evaluation in ICR mice; format: in vivo
Experimental: Experiment purpose: Safety evaluation of CR194AX in ICR mice
Sample preparation: An appropriate amount of CR194AX was weighed and dissolved in PBS, and an appropriate amount of alkaline solution was added to formulate a sample mother solution with a neutral pH, which was filtered and diluted with filtered PBS to a sample solution with a working concentration for later use.
Experimental design: ICR mice (female, 6-8 weeks old, weighing about 25 g) were randomly grouped according to body weight, and the administration was started on the first day of grouping. The dosage was adjusted according to the latest body weight of the mice, and the administration was performed via tail vein injection at an administration volume of 10 μl/g. After grouping and administration, the effects of the drugs on the normal behaviors of the animals, including the activity, food intake and drinking status, body weight, eyes, hair, feces, secretions and other abnormalities of the experimental animals, were tested. The body weight of the mice was measured twice a week and observed for 8 days after the last administration. At the end of the experiment, the liver and spleen were weighed, and the liver, spleen, lung, kidney and stomach were taken out and placed in 10% formalin neutral fixative for HE analysis. Sample preparation: An appropriate amount of the compound was weighed and dissolved in PBS, and an appropriate amount of alkaline solution was added to formulate a sample mother solution with a neutral pH, which was filtered and diluted with filtered physiological saline to a sample solution with a working concentration for later use.

HEK293T cells = test: Cell expansion inhibition assay (CCK-8, 72 h), Table 3; format: cell-based, human; conditions: no visible FOLR1 expression
Experimental: (§1) Cell lines: HEK293T-FOLR1 (a stably transformed cell line overexpressing FOLR1), SK-BR-3 (human breast cancer cell) and HEK293T (human embryonic kidney cell).
(§2) Main reagents: 1640 folic acid-free medium, fetal bovine serum, penicillin-streptomycin solution, L-glutamine and CCK8.
(§3) (1) Cell plating: Cells were prepared in advance, digested with Trypsin, collected and counted. A complete cell culture medium was used to dilute HEK293T-FOLR1 and HEK293T cells to 6×10^3 cells/ml, and dilute SK-BR-3 cells to 1.5×10^4 cells/ml. 100 μl of diluted cell solution was added to each well of 96-well plates, and negative and blank control wells were set on each plate. The 96-well plates added with the cells were placed in an incubator at 37° C., 5% CO2 for culturing overnight.
(§4) (2) Diluting and adding samples: The samples were serially diluted with medium (the starting concentration was 30 μM, 5-fold serial dilution), and a total of 10 concentration gradients were set. To each well of the 96-well plates that were cultured overnight, 50 μl of the diluted samples were added, with 3 replicate wells; negative controls and blank controls were set; and the plates were placed in an incubator at 37° C., 5% CO2 for culturing 72 h.
(§5) (3) Color development and reading plate: To each well, 15 μl (10% of the liquid volume in a well) of a color developing solution from CCK-8 was added; the plates were incubated at 37° C. for an appropriate time (try to keep the OD value in the range of 1.0-2.5); the covers of the 96-well plates were removed, and the plates were read at 450 nm on a microplate reader (Molecular Devices SpectraMax iD5).
(§6) (4) Data processing: The data was edited using SoftMax Pro 7.1 and a four-parameter fitting curve was plotted.

HEK293T-FOLR1 cells [2] = test: as above; format: cell-based, human; conditions: FOLR1 high expression
Experimental: as §1, §2, §3, §4, §5, §6

SK-BR-3 cells [3] = test: as above; format: cell-based, human; conditions: FOLR1 low expression
Experimental: as §1, §2, §3, §4, §5, §6

HEK293T-FOLR1 cells [4] = test: Cell expansion inhibition assay (CCK-8, 72 h), Table 4; format: cell-based, human
Experimental: (§7) Cell lines: HEK293T-FOLR1 (a stably transformed cell line overexpressing FOLR1), SK-BR-3 (human breast cancer cell with low expression of FOLR1) and MIA PaCa2 (human pancreatic cancer cell without expression of FOLR1).
as §2
(§8) (1) Cell plating: Cells were prepared in advance, digested with Trypsin, collected and counted. A complete cell culture medium was used to dilute SK-BR-3 cells to 3.0×10^4 cells/ml, HEK293T-FOLR1 cells to 1.5×10^4 cells/ml, and MIA PaCa-2 cells to 2.0×10^4 cells/ml. 100 μl of diluted cell solution was added to each well of 96-well plates, and negative and blank control wells were set on each plate. The 96-well plates added with the cells were placed in an incubator at 37° C., 5% CO2 for culturing overnight.
as §4, §5, §6

MIA PaCa2 cells = test: as above; format: cell-based, human; conditions: without expression of FOLR1, read-out: MIAPACA-2 IC50
Experimental: as §7, §2, §8, §4, §5, §6

SK-BR-3 cells [5] = test: as above; format: cell-based, human
Experimental: as §7, §2, §8, §4, §5, §6

[6] = 50 mg/kg, qw*3 and q3d*6, tail vein

In the case of CC[C@@]1(O)C(=O)OCc2c1cc1n(c2=O)Cc2c-1nc1cc(F)c(C)c3c1c2[C@@H](NC(=O)CNC(=O)[C@H](Cc1ccccc1)NC(=O)CNC(=O)CNC(=O)CCCCC(=O)NCCCC[C@H](NC(=O)[C@H](CS)NC(=O)CC[C@H](NC(=O)c1ccc(NCc2cnc4nc(N)nc(O)c4n2)cc1)C(=O)O)C(=O)N[C@@H](CCC(=O)O)C(=O)N[C@@H](Cc1ccccc1)C(=O)N[C@@H](CC(C)C)C(=O)N[C@@H](Cc1c[nH]cn1)C(=O)N1CCC[C@H]1C(=O)N[C@@H](CO)C(=O)N[C@@H](CCCCN)C(=O)N[C@H](C(=O)N[C@@H](CC(=O)O)C(=O)N[C@@H](CC(C)C)C(=O)N1CCC[C@H]1C(=O)N[C@@H](CCCNC(=N)N)C(=O)O)C(C)C)CC3 [CR194AX] ({Pteroyl-γGlu}-CK(X1)EFLHPSKVDLPR-OH), the “average weight loss of the mice” value ([1]; 25 mg/kg q3d*6, tail vein) is reported as at most 5%, the “mortality during the administration” value ([1]; 25 mg/kg q3d*6, tail vein) is reported as “no mice died” and the tolerance ([1]; 25 mg/kg q3d*6, tail vein) is reported as “good tolerance”. The “average weight loss of the mice” value [1, 6] was at most 10%, the “mortality during the administration period” value [1, 6] was “no mice died” and the tolerance [1, 6] was “good tolerance”. For the same compound, the “weights of the liver and spleen compared with the negative control group” value ([1]; each administration group, end of experiment) was “no significant difference”.
CC[C@@]1(O)C(=O)OCc2c1cc1n(c2=O)Cc2c-1nc1cc(F)c(C)c3c1c2[C@@H](N)CC3 [Dx] showed an IC50 (HEK293T cells) of 1.12 nM, an IC50 (HEK293T-FOLR1 cells [2]) of 1.02 nM and an IC50 (SK-BR-3 cells [3]) of 0.599 nM. It also gave an IC50 (HEK293T-FOLR1 cells [4]) of 0.995 nM, an IC50 (MIA PaCa2 cells) of 5.53 nM and an IC50 (SK-BR-3 cells [5]) of 0.569 nM.
Work on CC[C@@]1(O)C(=O)OCc2c1cc1n(c2=O)Cc2c-1nc1cc(F)c(C)c3c1c2[C@@H](NC(=O)CO)CC3 [Dxd] yielded an IC50 (HEK293T-FOLR1 cells [4]) of 1.68 nM and an IC50 (MIA PaCa2 cells) of 111 nM.
In the case of CCc1c2c(nc3ccc(O)cc13)-c1cc3c(c(=O)n1C2)COC(=O)[C@]3(O)CC [SN38], the IC50 (HEK293T-FOLR1 cells [4]) is reported as 0.943 nM, the IC50 (MIA PaCa2 cells) is reported as 7.03 nM and the IC50 (SK-BR-3 cells [5]) is reported as 0.947 nM.

Reference: patent publication US20240358843A1, “LIGAND-DRUG CONJUGATE AND USE THEREOF” (priority 2021, published 2024)
